Tests used:
[1] = tested on: K+ channels
[2] = tested on: human iPSC-derived NPCs; experiment: Proliferation of iPSC-derived NPCs (ki67 staining); format: cell-based; conditions: d14 NPCs; data not shown
Source text: (§1) This supports a potential pro-neurogenic role for NDP in adult neurogenesis.

[3] = tested on: adult SVZ neural progenitor cells; experiment: Primary neurosphere formation of adult SVZ progenitors; format: cell-based; conditions: eight-week old mice, in the presence of EGF and FGF, 10 days in vitro, p=0.04
Protocol: as §1
Adult FVB/N mice were killed by cervical dislocation (n=3 per preparation) and their brains removed and placed into Pipes buffer (20 mM Pipes, 25 mM glucose, 0.12M NaCl, 0.5 mM KCl [ph 7.4]). The lateral walls of the lateral ventricles were dissected, collected in Pipes buffer and incubated in a mixture containing 1.2 mL of activated papain and 8.8 ml of Pipes buffer. Papain was activated 20 min in advance by placing 3 mg of papain (Worthington Biochemical) in 1 ml of 1.1 mM EDTA, 5.5 mM cysteine HCl. The pieces of tissue were incubated in papain solution at 37° C. on a rocking platform for 10 min and collected by centrifugation at 1300 rpm for 5 min. The cellular pellet was resuspended in 1 ml of DMEM-F12 (GIBCO) containing 0.7 mg of ovomucoid inhibitor and 1 mg of DNase. The cells were dissociated and neural precursor cells were separated from differentiated cells, myelin and extracellular matrix using density gradient separation by centrifugation step with 22% Percoll. […] The cells were counted and plated in 96well-low attachment plate (Corning) (1.5×10^5/mL) in the same medium containing 10 ng/mL of EGF receptor grade (Millipore) and 10 ng/mL human bFGF (Invitrogen). […] The numbers of neurospheres were counted for six 40× fields/well after 10 days in vitro. […]

[4] = target: T1, γ-secretase (Homo sapiens, UniProt P49768); experiment: Aβ production in conditioned media by ELISA; format: cell-based; conditions: 10 μM, control and PS1 cells
T1 construct: endogenous in cells

[5] = tested on: 7889O neurons; format: cell-based, human
[6] = tested on: Na+ channels; format: cell-based, human
[7] = cited from earlier work

For tetraethylammonium [TEA], the “long lasting outward current after the fast inward current” value [1] was “cancelled”.

For “recombinant norrin: recombinant Norrin protein (R&D systems), product of NDP; secreted molecule activating canonical Wnt signaling via Frizzled-4”, the “proliferation (ki67 staining)” value [2] was “did not show differences in proliferation”, the “proliferation as measured by primary neurosphere formation” value [3] was “increased proliferation” and the “proliferation as measured by primary neurosphere formation” value ([3]; listed as recombinant Norrin protein) was “induces proliferation”.

With `C[C@H](NC(=O)Cc1cc(F)cc(F)c1)C(=O)N[C@H](C(=O)OC(C)(C)C)c1ccccc1` [DAPT] the Aβ production [4] was “sufficient to block” and the Aβ production ([4]; listed as DapT) was “blocks”.

In the case of `NC1=N[C@H](O)[C@H]2[C@H]3O[C@]4(O)O[C@@H]([C@@H](O)[C@@]2(N1)[C@@H]4O)[C@]3(O)CO` [TTX, tetrodotoxin], the “kinetics of remaining Ca2+ transients” value [5] is reported as “generally slower”, the action potentials [6] is reported as “blocked” and the inward currents [6] is reported as “blocked”.

In the case of `CC12CC3CC(C)(C1)CC(N)(C3)C2` [Memantine], the reported adverse events ([7]; in vivo) is given as “infrequent and mild” and the efficacy in treatment ([7]; moderate to severe Alzheimer's disease) is given as “moderately efficacious”.
